# Reference: the supplement of paper PMC10307832
# Assays:
# [1] = compound: CC1=CN2C(=O)C=C(N=C2C(=C1)C(C)NC3=CC=CC=C3)N4CCOCC4 [TGX 221] + Cc1nc(NC(=O)N2CCC[C@H]2C(N)=O)sc1-c1ccnc(C(C)(C)C(F)(F)F)c1 [Alpelisib] (partner 2 µM); assay: relative viability (nuclei count vs DMSO), 5 days (fraction); higher = more cells survive
# Outline: (§1)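 Each reported value is a median over duplicate plates. It expresses relative viability: treated-well nuclei count divided by vehicle-well nuclei count. Lung cancer cell lines in 1536-well plates were dosed by pin tool a day after seeding, alone with one drug or with a fixed anchor-drug dose plus five library-drug doses (not always all listed) in √10 steps, and nuclei were counted after 5 days.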
# [2] = compound: O=C(CCCCCCNC(=O)c1cnc(N(c2ccccc2)c2ccccc2)nc1)NO [Ricolinostat] + CC(C)C[C@H](NC(=O)[C@H](Cc1ccccc1)NC(=O)c1cnccn1)B(O)O [Bortezomib] (partner 0.002 µM); assay: as above
# Outline: as §1
cell line,measurement,setting,value
NCI-H1792,relative viability,[1]; first compound 0.08 µM,0.609
same,relative viability,[1]; first compound 0.253 µM,0.599
same,relative viability,[1]; first compound 0.8 µM,0.698
same,relative viability,[1]; first compound 2.53 µM,0.511
same,relative viability,[1]; first compound 8 µM,0.432
same,relative viability,[2]; first compound 0.08 µM,0.899
same,relative viability,[2]; first compound 0.253 µM,0.926
same,relative viability,[2]; first compound 0.8 µM,0.944
same,relative viability,[2]; first compound 2.53 µM,0.973
